Tests used:
AHR [1] = biological target: T1, AHR (Rattus norvegicus, UniProt P41738); experiment: AHR-dependent Cyp1A1 expression (P450-Glo) in rat H411E hepatoma cells stimulated with L-kynurenine; type: cell-based; conditions: 100 μM L-kynurenine, 24 hours
T1 construct: In rat hepatoma H411E cells treated with 100 μM L-kynurenine; endogenous in cells; host or cells: H411E rat hepatoma cells
T1 sequence (P41738 10-853): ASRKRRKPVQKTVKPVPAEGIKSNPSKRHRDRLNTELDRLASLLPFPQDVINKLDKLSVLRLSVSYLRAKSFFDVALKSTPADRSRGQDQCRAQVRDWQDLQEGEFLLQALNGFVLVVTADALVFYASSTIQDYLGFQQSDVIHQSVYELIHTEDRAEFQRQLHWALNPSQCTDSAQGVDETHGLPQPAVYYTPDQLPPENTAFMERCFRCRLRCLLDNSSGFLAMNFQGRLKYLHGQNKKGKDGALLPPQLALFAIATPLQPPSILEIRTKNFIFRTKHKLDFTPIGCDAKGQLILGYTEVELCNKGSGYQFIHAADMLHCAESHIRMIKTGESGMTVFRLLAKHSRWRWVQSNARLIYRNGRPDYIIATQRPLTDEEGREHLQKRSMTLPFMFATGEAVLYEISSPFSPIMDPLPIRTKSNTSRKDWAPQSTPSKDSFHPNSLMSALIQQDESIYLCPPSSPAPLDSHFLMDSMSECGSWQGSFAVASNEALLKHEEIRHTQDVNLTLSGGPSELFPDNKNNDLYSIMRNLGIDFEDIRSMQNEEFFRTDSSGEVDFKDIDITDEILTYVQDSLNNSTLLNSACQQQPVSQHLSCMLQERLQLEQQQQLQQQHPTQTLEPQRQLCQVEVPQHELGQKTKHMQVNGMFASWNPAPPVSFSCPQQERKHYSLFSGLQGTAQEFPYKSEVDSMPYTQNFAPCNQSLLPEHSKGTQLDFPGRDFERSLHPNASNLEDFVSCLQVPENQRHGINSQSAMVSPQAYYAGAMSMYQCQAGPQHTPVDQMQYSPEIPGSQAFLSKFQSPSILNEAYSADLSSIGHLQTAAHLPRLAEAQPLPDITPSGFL
Protocol: The ability of Compound A to inhibit AHR-dependent Cyp1A1 gene expression was examined in vitro by measuring changes in Cyp1A1 enzymatic activity in 2 rodent hepatoma cell lines following AHR agonist stimulation. Mouse Hepa1.6 and rat H411E hepatoma cells were treated with AHR agonists VAF347 and L-kynurenine, respectively, in the presence of Compound A at multiple concentrations for 24 hours. The inhibition of Cyp1A1 expression was subsequently evaluated by measuring Cyp1A1 enzyme activity using P450-Glo assays.

[2] = Nonclinical safety studies incl. 28-day GLP study in monkeys; type: in vivo
Source text: The nonclinical safety of Compound A has been evaluated in a series of pharmacological, single-dose and repeated-dose toxicological studies in rodent and non-rodent species including 28-day Good Laboratory Practice (GLP) studies in rat and monkeys. […] All changes were resolved or resolving after 2 weeks of dosing cessation, except for the testicular changes in rats. The nonclinical safety assessment from these studies supports clinical evaluation of Compound A in humans. The initial planned dose of Compound A for this study is 200 mg once daily (QD), based on evaluation of the Compound A nonclinical safety data.
During dose escalation, a minimum of 3 patients are required at each dose. Depending on accrual rate and occurrence of DLTs, 3, 4, 5, or 6 patients may be enrolled at each new dose until the last of those patients completes the 21-day DLT assessment period. Based on the mTPI-2 design, the number of patients who are enrolled at a dose but are not yet fully evaluable for DLT assessment may not exceed the number of remaining patients who are at risk of developing a DLT before the dose would be considered unacceptably toxic. In general, 3 to 14 patients can be enrolled at a given dose level. Administration of Compound A to the first 2 patients in each new dose cohort is staggered by a minimum of 15 hours.

AHR [3] = biological target: T2, AHR (Homo sapiens, UniProt P35869); experiment: CYP1B1 gene expression in human whole blood ex vivo, basal and L-kynurenine-induced; type: cell-based; set-up: endogenous in cells; conditions: Compound A concentrations >0.5 μM, basal and 20 μM L-kynurenine activated, 24 hours, 2 donors
T2 sequence (P35869 11-848): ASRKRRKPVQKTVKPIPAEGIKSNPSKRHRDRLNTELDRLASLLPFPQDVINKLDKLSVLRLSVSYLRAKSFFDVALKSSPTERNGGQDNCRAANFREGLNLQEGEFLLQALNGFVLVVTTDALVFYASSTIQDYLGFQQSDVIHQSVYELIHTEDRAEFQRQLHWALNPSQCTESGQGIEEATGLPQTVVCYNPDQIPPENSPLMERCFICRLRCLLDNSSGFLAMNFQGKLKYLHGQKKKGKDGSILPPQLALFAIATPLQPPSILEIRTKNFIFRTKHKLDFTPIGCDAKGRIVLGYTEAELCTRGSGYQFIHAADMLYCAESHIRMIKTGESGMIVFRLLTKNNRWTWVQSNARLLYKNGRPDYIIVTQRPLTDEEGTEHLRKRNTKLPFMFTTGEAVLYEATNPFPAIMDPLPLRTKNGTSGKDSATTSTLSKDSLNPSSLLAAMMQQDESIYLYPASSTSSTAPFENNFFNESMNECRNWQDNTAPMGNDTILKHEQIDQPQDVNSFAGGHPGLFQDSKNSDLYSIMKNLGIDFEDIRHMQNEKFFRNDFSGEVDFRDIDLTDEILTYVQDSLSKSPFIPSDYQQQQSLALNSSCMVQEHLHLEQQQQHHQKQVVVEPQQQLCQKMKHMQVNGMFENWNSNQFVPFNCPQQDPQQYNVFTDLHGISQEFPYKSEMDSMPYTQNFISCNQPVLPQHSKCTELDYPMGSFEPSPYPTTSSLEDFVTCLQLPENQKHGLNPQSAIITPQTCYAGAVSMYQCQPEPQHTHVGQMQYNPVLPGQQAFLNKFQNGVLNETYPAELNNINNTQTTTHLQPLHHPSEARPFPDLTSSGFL
Protocol: To further examine the effects of Compound A on basal and ligand-activated AHR-dependent gene expression in human immune cells, blood samples from 2 healthy human donors were exposed ex vivo to Compound A in the presence or absence of 20 μM L-kynurenine to activate AHR. After 24 hours, cells were evaluated for CYP1B1 gene expression. In whole blood samples without AHR activation, basal levels of CYP1B1 expression were inhibited by Compound A treatment in both donors (FIG. 30A). […] In both donors, Compound A concentrations >0.5 μM inhibited CYP1B1 gene expression by greater than 50% under basal and ligand activated conditions.

CC(C)c1cnn2c(N[C@@H]3CCc4[nH]c5ccccc5c4C3)nc(-c3cncc(F)c3)nc12 [Compound A, (R)—N-(2-(5-fluoropyridin-3-yl)-8-isopropylpyrazolo[1,5-a][1,3,5]triazin-4-yl)-2,3,4,9-tetrahydro-1H-carbazol-3-amine]
IC50 (AHR [1]): 151 nM | noteworthy findings in nonclinical safety studies ([2]; monkey): decreased thymus weights and cortical lymphocytes | AUC ([2]; monkey, primates, plasma, read-out: AUC where QTc increases are noted): 188 µg·h/mL | Cmax ([2]; monkey, primates, plasma, read-out: Cmax where QTc increases are noted): 11200 ng/mL | QTc prolongation ([2]; monkeys): up to 11% | inhibition of CYP1B1 gene expression (AHR [3]): greater than 50%

— patent US20230026232A1, “AHR INHIBITORS AND USES THEREOF” (Ikena Oncology, Inc., priority 2019, published 2023)
